Reference: PubChem BioAssay (NCI)
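Here, GI50 denotes the concentration required for 50% inhibition of growth. Definition used: TGI = concentration required for complete inhibition of growth.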

Assays:
Assay in all cases: DTP human tumour cell line panel, 384-well format
U251 glioblastoma = tested on: U251 glioblastoma
OVCAR-5 ovarian = tested on: OVCAR-5 ovarian
IGROV1 ovarian = tested on: IGROV1 ovarian
OVCAR-4 ovarian = tested on: OVCAR-4 ovarian
M14 melanoma = tested on: M14 melanoma
SNB-75 CNS = tested on: SNB-75 CNS
NCI-H23 lung = tested on: NCI-H23 lung
MDA-MB-231 breast = tested on: MDA-MB-231 breast
ACHN renal = tested on: ACHN renal
EKVX NSCLC = tested on: EKVX NSCLC
CAKI-1 renal = tested on: CAKI-1 renal
TK-10 renal = tested on: TK-10 renal
SK-MEL-5 melanoma = tested on: SK-MEL-5 melanoma
HS 578T breast = tested on: HS 578T breast
OVCAR-3 ovarian = tested on: OVCAR-3 ovarian
NCI-H522 lung = tested on: NCI-H522 lung
OVCAR-8 ovarian = tested on: OVCAR-8 ovarian
BT-549 breast = tested on: BT-549 breast
RXF 393 renal = tested on: RXF 393 renal
HOP-92 NSCLC = tested on: HOP-92 NSCLC
HCT-15 colon = tested on: HCT-15 colon
SF-539 CNS = tested on: SF-539 CNS
NCI-H322M lung = tested on: NCI-H322M lung
MDA-MB-435 melanoma = tested on: MDA-MB-435 melanoma
SK-OV-3 ovarian = tested on: SK-OV-3 ovarian
MALME-3M melanoma = tested on: MALME-3M melanoma
T-47D breast = tested on: T-47D breast
SK-MEL-28 melanoma = tested on: SK-MEL-28 melanoma
SK-MEL-2 melanoma = tested on: SK-MEL-2 melanoma
SF-295 CNS = tested on: SF-295 CNS
A498 renal = tested on: A498 renal
SNB-19 CNS = tested on: SNB-19 CNS
SF-268 CNS = tested on: SF-268 CNS
MCF7 breast = tested on: MCF7 breast
NCI-H226 lung = tested on: NCI-H226 lung
HOP-62 NSCLC = tested on: HOP-62 NSCLC
SW-620 colon = tested on: SW-620 colon
MOLT-4 leukemia = tested on: MOLT-4 leukemia
KM12 colon = tested on: KM12 colon
MDA-MB-468 breast = tested on: MDA-MB-468 breast
SR leukemia = tested on: SR leukemia
UACC-62 melanoma = tested on: UACC-62 melanoma
HT29 colon = tested on: HT29 colon
PC-3 prostate = tested on: PC-3 prostate
UACC-257 melanoma = tested on: UACC-257 melanoma
NCI-H460 NSCLC = tested on: NCI-H460 NSCLC
786-0 renal = tested on: 786-0 renal
SN12C renal = tested on: SN12C renal
HCT-116 colon = tested on: HCT-116 colon
A549 NSCLC = tested on: A549 NSCLC
UO-31 renal = tested on: UO-31 renal
DU-145 prostate = tested on: DU-145 prostate
K-562 leukemia = tested on: K-562 leukemia
HL-60(TB) leukemia = tested on: HL-60(TB) leukemia
COLO 205 colon = tested on: COLO 205 colon

For `O=C1COc2c(CCNCCN(C(=O)CCNCCc3ccc(Cl)c(Cl)c3)C3CCCCC3)ccc(O)c2N1`, the GI50 (U251 glioblastoma) was 5.85 µM, the TGI (U251 glioblastoma) was 18 µM and the GI50 (OVCAR-5 ovarian) was 16.2 µM. For the same compound, the TGI (OVCAR-5 ovarian) was 29.8 µM, the GI50 (IGROV1 ovarian) was 7.16 µM and the TGI (IGROV1 ovarian) was 19.7 µM. For the same compound, the GI50 (OVCAR-4 ovarian) was 16.1 µM, the TGI (OVCAR-4 ovarian) was 29.7 µM and the GI50 (M14 melanoma) was 4.2 µM. The TGI (M14 melanoma) was 12.9 µM, the GI50 (SNB-75 CNS) was 2.28 µM and the TGI (SNB-75 CNS) was 7.25 µM. For the same compound, the GI50 (NCI-H23 lung) was 14.8 µM, the TGI (NCI-H23 lung) was 28 µM and the GI50 (MDA-MB-231 breast) was 1.88 µM. It also gave a TGI (MDA-MB-231 breast) of 10.7 µM, a GI50 (ACHN renal) of 15.5 µM and a TGI (ACHN renal) of 28.9 µM. It also gave a GI50 (EKVX NSCLC) of 12.4 µM, a TGI (EKVX NSCLC) of 24.9 µM and a GI50 (CAKI-1 renal) of 14.5 µM. The TGI (CAKI-1 renal) was 27.7 µM, the GI50 (TK-10 renal) was 10.4 µM and the TGI (TK-10 renal) was 22.2 µM. The GI50 (SK-MEL-5 melanoma) was 6.31 µM, the TGI (SK-MEL-5 melanoma) was 18.1 µM and the GI50 (HS 578T breast) was 1.76 µM. It also gave a TGI (HS 578T breast) of 3.44 µM, a GI50 (OVCAR-3 ovarian) of 10.3 µM and a TGI (OVCAR-3 ovarian) of 22 µM. The GI50 (NCI-H522 lung) was 2.5 µM, the TGI (NCI-H522 lung) was 5.7 µM and the GI50 (OVCAR-8 ovarian) was 15.1 µM. It also gave a TGI (OVCAR-8 ovarian) of 28.5 µM, a GI50 (BT-549 breast) of 3.29 µM and a TGI (BT-549 breast) of 12 µM. It also gave a GI50 (RXF 393 renal) of 2.86 µM, a TGI (RXF 393 renal) of 10.8 µM and a GI50 (HOP-92 NSCLC) of 1.89 µM. It also gave a TGI (HOP-92 NSCLC) of 4.35 µM, a GI50 (HCT-15 colon) of 17.8 µM and a TGI (HCT-15 colon) of 31.9 µM. The GI50 (SF-539 CNS) was 11.2 µM, the TGI (SF-539 CNS) was 23.3 µM and the GI50 (NCI-H322M lung) was 14.2 µM. The TGI (NCI-H322M lung) was 27.3 µM, the GI50 (MDA-MB-435 melanoma) was 2.12 µM and the TGI (MDA-MB-435 melanoma) was 4.44 µM. It also gave a GI50 (SK-OV-3 ovarian) of 15.5 µM, a TGI (SK-OV-3 ovarian) of 28.9 µM and a GI50 (MALME-3M melanoma) of 5.14 µM. It also gave a TGI (MALME-3M melanoma) of 15.6 µM, a GI50 (T-47D breast) of 4.22 µM and a TGI (T-47D breast) of 14.6 µM. It also gave a GI50 (SK-MEL-28 melanoma) of 4.31 µM, a TGI (SK-MEL-28 melanoma) of 14.6 µM and a GI50 (SK-MEL-2 melanoma) of 1.79 µM. For the same compound, the TGI (SK-MEL-2 melanoma) was 3.18 µM, the GI50 (SF-295 CNS) was 13.7 µM and the TGI (SF-295 CNS) was 26.6 µM. The GI50 (A498 renal) was 14.9 µM, the TGI (A498 renal) was 28.2 µM and the GI50 (SNB-19 CNS) was 16.8 µM. It also gave a TGI (SNB-19 CNS) of 30.5 µM, a GI50 (SF-268 CNS) of 4.73 µM and a TGI (SF-268 CNS) of 16.1 µM. It also gave a GI50 (MCF7 breast) of 1.89 µM, a TGI (MCF7 breast) of 3.38 µM and a GI50 (NCI-H226 lung) of 12.3 µM. For the same compound, the TGI (NCI-H226 lung) was 24.8 µM, the GI50 (HOP-62 NSCLC) was 14.5 µM and the TGI (HOP-62 NSCLC) was 27.7 µM. For the same compound, the GI50 (SW-620 colon) was 5.25 µM, the TGI (SW-620 colon) was 16.8 µM and the GI50 (MOLT-4 leukemia) was 2.01 µM. For the same compound, the TGI (MOLT-4 leukemia) was 3.45 µM, the GI50 (KM12 colon) was 11.1 µM and the TGI (KM12 colon) was 23.3 µM. It also gave a GI50 (MDA-MB-468 breast) of 1.83 µM, a TGI (MDA-MB-468 breast) of 3.27 µM and a GI50 (SR leukemia) of 1.75 µM. The TGI (SR leukemia) was 3.14 µM, the GI50 (UACC-62 melanoma) was 2.1 µM and the TGI (UACC-62 melanoma) was 4.82 µM. It also gave a GI50 (HT29 colon) of 13.4 µM, a TGI (HT29 colon) of 26.2 µM and a GI50 (PC-3 prostate) of 10.8 µM. The TGI (PC-3 prostate) was 22.8 µM, the GI50 (UACC-257 melanoma) was 2.75 µM and the TGI (UACC-257 melanoma) was 6.62 µM. The GI50 (NCI-H460 NSCLC) was 2.26 µM, the TGI (NCI-H460 NSCLC) was 4.96 µM and the GI50 ([…]-0 renal) was 15.8 µM. It also gave a TGI (786-0 renal) of 29.3 µM, a GI50 (SN12C renal) of 15.8 µM and a TGI (SN12C renal) of 29.3 µM. The GI50 (HCT-116 colon) was 11.5 µM, the TGI (HCT-116 colon) was 23.7 µM and the GI50 (A549 NSCLC) was 17.5 µM. It also gave a TGI (A549 NSCLC) of 31.4 µM, a GI50 (UO-31 renal) of 17.8 µM and a TGI (UO-31 renal) of 31.7 µM. The GI50 (DU-145 prostate) was 16.2 µM, the TGI (DU-145 prostate) was 29.8 µM and the GI50 (K-562 leukemia) was 3.24 µM. It also gave a TGI (K-562 leukemia) of 10.3 µM, a GI50 (HL-60(TB) leukemia) of 1.83 µM and a TGI (HL-60(TB) leukemia) of 3.25 µM. For the same compound, the GI50 (COLO 205 colon) was 2.69 µM and the TGI (COLO 205 colon) was 6.13 µM.
